Assay results: US20170209544A1, “A PEPTIDE THERAPY TO COUNTERACT INSULIN RESISTANCE AND TYPE 2 DIABETES” (The Regents of the University of California, priority 2014, published 2017)
Where no end group is shown, it is not given here.

Assays:
KO-DIO mice = assay: Hepatic gene expression in PST-treated KO-DIO mice; assay type: in vivo; settings: PST 5 μg/g BW for 15 days
Method: (§1) RNA from tissues was extracted using a kit (RNeasy Plus, Qiagen, Valencia, Calif.). After DNase digestion, 200 ng of RNA was transcribed into cDNA in a 20-μl reaction using a High Capacity cDNA Archive kit and this cDNA was amplified. PCR (25-μl reactions) contained 5 μl of cDNA, 2×SYBR Green PCR Master Mix, and 400 nM of each primer. Differences in the threshold cycle number (ΔCt) between the target gene, the housekeeping gene Gapdh and the ribosomal protein gene 36B4 were used to calculate differences in expression. Primer sequences are provided below.
To determine chronic effects, KO-NCD mice were treated with saline, PST (5 μg/g BW), PSTv1 (10 μg/g BW) or PST+PSTv1 for 15 days, fasted for 12 hrs after the last of injection and subjected to (FIG. 14C) GTT (2-way ANOVA: Treatment (Sal vs PST), Time, p<0.0001; Interaction, p<0.05; Treatment (PST vs PSTv1), p<0.0001; Time, p<0.0001; Interaction, p<0.01; n=7). The corresponding AUC is shown in (FIG. 14D). FIG. 14E reports liver glycogen at basal and during clamp in DIO mice (n=6). FIG. 14F reports chronic effects of PST (5 μg/g BW for 15 days) on expression of hepatic gluconeogenic genes (Pepck and G6pase) in DIO mice (n=6). FIG. 14G reports chronic effects of PST (5 μg/g BW for 15 days) on expression of hepatic lipid metabolic (Acc, Ppara, Cpt-1, Acox-1 and Srebp-1) genes in DIO mice (n=6). […]

GRP78 = GRP78 (Homo sapiens, UniProt P11021); assay: GRP78 ATPase enzymatic activity; assay type: biochemical
Chain of GRP78 (P11021 19-654, species assumed): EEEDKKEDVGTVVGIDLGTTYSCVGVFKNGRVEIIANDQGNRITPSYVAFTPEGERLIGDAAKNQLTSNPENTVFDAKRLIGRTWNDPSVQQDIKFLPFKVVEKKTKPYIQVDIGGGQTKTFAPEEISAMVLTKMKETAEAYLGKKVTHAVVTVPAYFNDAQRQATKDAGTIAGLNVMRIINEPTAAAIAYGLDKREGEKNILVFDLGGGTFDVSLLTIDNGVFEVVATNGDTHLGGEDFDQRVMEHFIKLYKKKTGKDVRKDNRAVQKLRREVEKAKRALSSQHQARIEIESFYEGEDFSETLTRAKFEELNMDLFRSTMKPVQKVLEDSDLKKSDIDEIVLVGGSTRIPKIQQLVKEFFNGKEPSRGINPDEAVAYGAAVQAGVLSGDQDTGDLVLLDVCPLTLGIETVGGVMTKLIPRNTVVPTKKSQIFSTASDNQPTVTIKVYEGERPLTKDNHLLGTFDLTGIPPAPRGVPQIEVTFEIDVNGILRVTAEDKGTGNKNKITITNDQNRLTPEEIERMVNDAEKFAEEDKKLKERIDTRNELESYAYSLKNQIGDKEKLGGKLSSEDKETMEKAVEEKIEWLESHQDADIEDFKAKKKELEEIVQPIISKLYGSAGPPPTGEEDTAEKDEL

peritoneal macrophages = assay: qPCR of inflammatory genes in cultured peritoneal macrophages; assay type: cell-based, mice
Method: Peritoneal macrophages were isolated after thioglycollate (3% solution in water) stimulation as described. Isolated macrophages were cultured in DMEM with 10% FBS for 48 hours with daily medium changes. Cells were then serum-starved overnight in DMEM with low FBS (0.5%) and then exposed to saline, PST (100 nM), or LPS (100 ng/ml) for 4 hours. At the end of incubation, the cultures were subjected to RNA extraction.
as §1
As shown in FIGS. 18A-18H, PST promotes macrophage inflammation and chemotaxis. Peritoneal macrophages were isolated from WT-NCD and KO-NCD after thioglycollate injection. After 4-hr exposure to saline, LPS (100 ng/ml) or PST (100 nM), RNAs were extracted and cDNAs were prepared for qPCR analyses of Chga (FIG. 18A, n=8), iNos (FIG. 18B, n=8), Tnfα (FIG. 18C, n=8), Mcp-1 (FIG. 18D, n=8), IL-6 (FIG. 18E, n=8), IL-12p40 (FIG. 18F, n=8) and iNos genes (FIG. 18G, n=8). (FIG. 18H) Effects of PST on chemotaxis of activated macrophages from NCD-fed C57BL/6J mice (n=5). “*” Denotes comparison between the indicated groups. “*”: P<0.05, “**”: p<0.01, “***”: p<0.001.

Chga-KO mice = assay: Glucose-stimulated insulin secretion during GTT in Chga-KO mice; assay type: in vivo
Source text: As shown in FIGS. 4A-4D, to compare the effects of PSTv1 (the peptide with SEQ ID NO. 1) vs. PST on glucose-stimulated insulin secretion (GSIS), the inventors analyzed plasma insulin levels in Chga-KO mice during GTT experiments.

Bip/GRP78 = Bip/GRP78 (Mus musculus, UniProt P20029); assay: Pull down assay using biotinylated PST; assay type: binding
Chain of Bip/GRP78 (P20029 20-655): as the sequence (P11021 19-654, species assumed) above, with Y295F, A620G, A631S counted along it
Source text: PST interacts with ER chaperone, GRP78/BiP. […] Moreover, PST inhibits GRP78's ATPase enzymatic activity, and impairs its biosynthetic response to UPR activation. PST as an inhibitor of ATPase activity augments expression of gluconeogenic gene and G6Pase. GRP78 over-expression antagonizes this PST action.

[1] = PST 100 nM, 4 hr, Chga-KO macrophages

GRP78's ATPase enzymatic activity (GRP78): inhibits
binding to ER chaperone Bip/GRP78 (Bip/GRP78): binds
Substance: PEGKGEQEHSQQKEEEEEMAVVPQGLFRG-amide (PEGKGEQEHSQQKEEEEEMAVVPQGLFRG-NH2) [PST, Wild-type human pancreastatin, a chromogranin A derived peptide]
lower mRNA levels of Pepck and G6pase in KO-DIO liver (KO-DIO mice): reversed
expression of Acox-1 and Cpt-1 (KO-DIO mice; liver): increased
expression of IL-6, IL-12p40 and iNos genes (peritoneal macrophages; [1]): had no effect
expression of Tnfα and Mcp-1 (peritoneal macrophages; [1]): increased
expression of Tnfα, Mcp-1, IL-6, IL-12p40 and iNos (peritoneal macrophages; macrophage cultures from WT and Chga-KO mice on NCD): increased
glucose-stimulated insulin secretion (GSIS) (Chga-KO mice): lowers GSIS
plasma glucose concentration (Chga-KO mice): without lowering plasma glucose concentration
